In US11078213B2, “Thienopyrimidine compound, preparation method thereof, pharmaceutical composition and application thereof” (HONGYUN BIOTECH CO., LTD., priority 2016, dated 2021):

Target: T1, EML4-ALK-BaF3 (Homo sapiens, UniProt Q9UM73)
T1 construct: EML4 (echinoderm microtubule associated protein like 4, Q9HC35) fusion partner; expressed in transfected cells; host or cells: BaF3; the other entry of the earlier key: EML4 (Q9HC35, Echinoderm microtubule-associated protein-like 4)
Assay: Growth inhibition of BaF3 cells stably transfected with kinase EML4-ALK (MTS)
Assay type: cell-based
Conditions: compound concentration 3.3 μM, read-out: cell growth inhibition rate, EML4-ALK
Method: The specific test method is given as follows:
2) Reagent: MTS reaction solution (containing 2 mg/mL of MTS [3-(4,5-dimethylthiazol-2-yl)-5-(3-carboxymethoxyphenyl)-2-(4-sulfophenyl)-2H-tetra zolium, inner Salt]; 100 µg/mL PES ([…])).

T1 sequence (Q9UM73 1058-1620 limits assumed): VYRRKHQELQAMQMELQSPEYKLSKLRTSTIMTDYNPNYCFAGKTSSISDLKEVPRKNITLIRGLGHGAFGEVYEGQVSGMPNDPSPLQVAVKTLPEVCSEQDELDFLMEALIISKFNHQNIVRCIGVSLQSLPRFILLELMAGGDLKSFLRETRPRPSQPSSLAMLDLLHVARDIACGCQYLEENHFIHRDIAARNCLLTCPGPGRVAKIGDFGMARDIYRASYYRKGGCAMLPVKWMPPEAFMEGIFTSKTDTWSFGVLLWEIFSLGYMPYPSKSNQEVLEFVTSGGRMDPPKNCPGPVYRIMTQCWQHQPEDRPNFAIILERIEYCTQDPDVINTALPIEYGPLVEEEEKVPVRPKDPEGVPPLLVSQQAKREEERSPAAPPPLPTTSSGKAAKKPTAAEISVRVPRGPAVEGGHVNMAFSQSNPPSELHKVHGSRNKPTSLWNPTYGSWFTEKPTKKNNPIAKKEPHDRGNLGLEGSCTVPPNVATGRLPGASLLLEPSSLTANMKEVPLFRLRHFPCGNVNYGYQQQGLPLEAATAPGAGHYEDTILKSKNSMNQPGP

SMILES | inhibition at 3.3 µM [%]
COc1cc(N2CCN(C)CC2)ccc1Nc1nc(Nc2ccccc2S(=O)(=O)C(C)(C)C)c2sccc2n1 [IO-3] | 98.7
COc1cc2c(cc1Nc1nc(OCc3ccccc3S(=O)(=O)C(C)C)c3sccc3n1)N(C(=O)CN(C)C)CC2 [IT-1] | 99.8
COc1cc(N2CCC(N3CCN(C)CC3)CC2)ccc1Nc1nc(Nc2ccccc2C(=O)NC(C)C)c2sccc2n1 [IP-1] | 97.4
COc1cc2c(cc1Nc1nc(Nc3ccccc3S(=O)(=O)C(C)C)c3sccc3n1)N(C(=O)CN1CCCC1)CC2 [IB-33] | 98.3
COc1cc2c(cc1Nc1nc(Nc3ccccc3S(=O)(=O)C(C)(C)C)c3sccc3n1)N(C(=O)CN(C)C)CC2 [IO-1] | 97.1
COc1ccc(NC(=O)CN(C)C)cc1Nc1nc(Nc2ccccc2S(=O)(=O)C(C)C)c2sccc2n1 [IB-32] | 95
COc1cc(F)c(NC(=O)CN(C)C)cc1Nc1nc(Nc2ccccc2S(=O)(=O)C(C)C)c2sccc2n1 [IB-35] | 96.8
COc1cc2c(cc1Nc1nc(Nc3ccccc3C(=O)N(C)C)c3sccc3n1)N(C(=O)CN(C)C)CC2 [IQ-1] | 96.9
CCP(=O)(CC)c1ccccc1Nc1nc(Nc2cc3c(cc2OC)CCN3C(=O)CN(C)C)nc2ccsc12 [IS-1] | 98.7
COc1cc(N2CCC(N3CCN(C)CC3)CC2)ccc1Nc1nc(OCc2ccccc2S(=O)(=O)C(C)C)c2sccc2n1 [IT-3] | 87.8
CCP(=O)(CC)c1ccccc1Nc1nc(Nc2ccc(N3CCN(C)CC3)cc2)nc2ccsc12 [IS-5] | 103
CC(C)S(=O)(=O)c1ccccc1COc1nc(Nc2ccc(N3CCOCC3)cc2)nc2ccsc12 [IT-4] | 100
COc1cc(N2CCC(N3CCN(C)CC3)CC2)ccc1Nc1nc(Nc2ccccc2S(=O)(=O)C(C)(C)C)c2sccc2n1 [IO-2] | 96

Other lines, results leading:

inhibition at 3.3 µM [%] | SMILES
98.3 | COc1cc(N2CCC(N(C)C)CC2)ccc1Nc1nc(Nc2ccccc2P(=O)(C(C)C)C(C)C)c2sccc2n1 [IR-5]
96.3 | COc1cc(N2CCC(N3CCCC3)CC2)ccc1Nc1nc(Nc2ccccc2P(=O)(C(C)C)C(C)C)c2sccc2n1 [IR-2]
99.2 | COc1cc(N2CCN(C)CC2)ccc1Nc1nc(Nc2ccccc2P(=O)(C(C)C)C(C)C)c2sccc2n1 [IR-3]
99.1 | COc1cc(N2CCC(N(C)C)CC2)ccc1Nc1nc(Nc2ccccc2C(=O)NC(C)C)c2sccc2n1 [IP-3]
97.3 | COc1cc(N2CCN(C)CC2)ccc1Nc1nc(Nc2ccccc2C(=O)NC(C)C)c2sccc2n1 [IP-2]
97 | COc1cc(N2CCC(N(C)C)CC2)ccc1Nc1nc(Nc2ccccc2S(=O)(=O)C(C)(C)C)c2sccc2n1 [IO-4]
98.3 | CC(C)P(=O)(c1ccccc1Nc1nc(Nc2ccc(N3CCN(C)CC3)cc2)nc2ccsc12)C(C)C [IR-6]
97.5 | COc1cc2c(cc1Nc1nc(Nc3ccccc3P(=O)(C(C)C)C(C)C)c3sccc3n1)N(C(=O)CN(C)C)CC2 [IR-1]
103 | CCP(=O)(CC)c1ccccc1Nc1nc(Nc2ccc(N3CCN(C)CC3)cc2OC)nc2ccsc12 [IS-4]
99.5 | CCP(=O)(CC)c1ccccc1Nc1nc(Nc2ccc(N3CCC(N(C)C)CC3)cc2OC)nc2ccsc12 [IS-6]
98.1 | COc1cc(N2CCC(N(C)C)CC2)ccc1Nc1nc(Nc2ccccc2S(=O)(=O)C(C)C)c2sccc2n1 [IB-31]
101 | COc1cc(N2CCC(N(C)C)CC2)ccc1Nc1nc(OCc2ccccc2S(=O)(=O)C(C)C)c2sccc2n1 [IT-5]
98.4 | COc1cc(N2CCC(N3CCN(C)CC3)CC2)ccc1Nc1nc(Nc2ccccc2P(=O)(C(C)C)C(C)C)c2sccc2n1 [IR-4]
98.2 | CCP(=O)(CC)c1ccccc1Nc1nc(Nc2ccc(N3CCC(N4CCCC4)CC3)cc2OC)nc2ccsc12 [IS-2]
101 | CCP(=O)(CC)c1ccccc1Nc1nc(Nc2ccc(N3CCC(N4CCN(C)CC4)CC3)cc2OC)nc2ccsc12 [IS-3]
